Patent publication US20070149435A1, “Cleansing composition including microencapsulated delivery vehicles” (Kimberly-Clark Worldwide, Inc., priority 2005, published 2007)
Read-outs that look alike come from different tables or passages of the source.

Columns and labels:
[1] = tested on: Methicillin-resistant Staphylococcus aureus; conditions: 0.005% PHMB, 10-minute contact time, 5% bovine serum albumin soil, n = 2
Experimental: This Example utilized 1.5-milliliter tubes containing a 1-milliliter blend of phosphate-buffered saline (pH 7.2) and 5% (w/v) bovine serum albumin soil. The tubes were placed in electric heat blocks set for 22° C., 30° C., 40° C. and 50° C., respectively. The tubes remained in the electric heat blocks for approximately 10 minutes.
After 10 minutes, 0.005% (by weight) active polyhexamehtylene biguanide (PHMB) (commercially available as Cosmocil® CQ from Arch Biocides, Inc., United Kingdom) was added to two tubes at each temperature level. Duplicate tubes without PHMB at each temperature were also made.
The tubes were then vortexed and Methicillin-resistant Staphylococcus aureus (approximately 1×10^5 colony forming units (CFU)) was then added to each tube. All of the tubes were then placed back into the heat blocks at their respective temperatures.
Following a 10-minute contact time, 0.1 milliliters of each sample was transferred to 0.9 milliliters letheen broth to neutralize the PHMB activity. The letheen samples were then plated in duplicate on Tryptic Soy agar plates using a WASP2 spiral plater (commercially available from Don Whitley Scientific, Ltd., Yorkshire, United Kingdom). The plates were inverted and incubated at 37±2° C. for 48 hours.
After 48 hours, the plates were evaluated using a total plate count to determine the biocidal efficacy of each sample.

Staphylococcus aureus = test: Biocidal efficacy of magnesium chloride in combination with PHMB, total plate count; format: cell-based; conditions: 15-minute contact time
Experimental: A 1.5-milliliter tube was prepared using magnesium chloride in water.
Two control samples were also prepared. One control sample was filled with 0.850 milliliters magnesium chloride. A second control sample was prepared by introducing 0.850 milliliters sterile water.
The tubes were then vortexed until an increase in temperature was observed.
0.05 milliliters of 1×10^7 CFU/milliliter culture of Staphylococcus aureus was added to each tube. After a 15-minute contact time, 0.1 milliliters of each tube was transferred into 0.9 milliliters letheen broth. To the broth, 10 milligrams/milliliter sodium thiosulfate was also added. The tubes were again vortexed. After vortexing, 0.1 milliliters of each tube was plated on Tryptic soy agar plates. The plates were inverted and incubated at 37° C. for 24 hours. An inoculum control plate was also plated to determine the concentration of the inoculum
After 24 hours, the plates were evaluated using a total plate count to determine the biocidal efficacy of each sample.

| Compound | Total CFU Recovered MRSA ([1]; 22° C.) | Total CFU Recovered MRSA ([1]; 30° C.) | Total CFU Recovered MRSA ([1]; 40° C.) | Total CFU Recovered MRSA ([1]; 50° C.) | LOG10 recovered (Staphylococcus aureus; PHMB 0.00025%, magnesium chloride 0%) | LOG10 recovered (Staphylococcus aureus; PHMB 0%, magnesium chloride 50%) |
| --- | --- | --- | --- | --- | --- | --- |
| polyhexamethylene biguanide [PHMB] | 3.5 | 2.9 | 2.1 | <2 | 4.8 |  |
| [Cl-].[Cl-].[Mg+2] [Magnesium Chloride, magnesium chloride] |  |  |  |  |  | 1.9 |
